# Assay results from patent US11834428B2, “Dihydromyricetin nanocrystals and preparation method and application thereof” (Shaanxi University of Science and Technology, priority 2022, dated 2023).
# What was measured:
# [1] = Solubility of dihydromyricetin nanocrystals and API (solubility in cold water); assay type: physicochemical; settings: for solubility: cold water
# From the text: 1. The Effect of Stabilizers on the Particle Size and Solubilization Effect of the Dihydromyricetin Nanocrystals, See Table 1.
# [2] = Particle size of dihydromyricetin nanocrystals; assay type: physicochemical; settings: API
# Protocol: In order to describe the dihydromyricetin nanocrystals provided by the disclosure, the relevant properties of the embodiments 1 to 6 and the comparative embodiments are measured. 1. The Effect of Stabilizers on the Particle Size and Solubilization Effect of the Dihydromyricetin Nanocrystals, See Table 1.
smiles,measurement,setting,value
"O=C1c2c(O)cc(O)cc2O[C@H](c2cc(O)c(O)c(O)c2)[C@H]1O [Dihydromyricetin API, Dihydromyricetin]",solubility,"[1]; aqueous with cosolvent or surfactant or cyclodextrin, stabilizer sodium dodecyl sulfate (SDS)",300 µg/mL
same,solubility,"[1]; water, no stabilizer (/)",40 µg/mL
same,Solubility in cold water,[1]; stabilizer Tween-80,600 µg/mL
same,Particle size,[2],≥12 μm
